Target: T1, sOGT (Homo sapiens, UniProt O15294)
T1 construct: ncOGT and sOGT are identical to known splice variants; His8 (C); made in house; host or cells: E. coli BL21(DE3)
T1 sequence (O15294 1-665 isoform O15294-4): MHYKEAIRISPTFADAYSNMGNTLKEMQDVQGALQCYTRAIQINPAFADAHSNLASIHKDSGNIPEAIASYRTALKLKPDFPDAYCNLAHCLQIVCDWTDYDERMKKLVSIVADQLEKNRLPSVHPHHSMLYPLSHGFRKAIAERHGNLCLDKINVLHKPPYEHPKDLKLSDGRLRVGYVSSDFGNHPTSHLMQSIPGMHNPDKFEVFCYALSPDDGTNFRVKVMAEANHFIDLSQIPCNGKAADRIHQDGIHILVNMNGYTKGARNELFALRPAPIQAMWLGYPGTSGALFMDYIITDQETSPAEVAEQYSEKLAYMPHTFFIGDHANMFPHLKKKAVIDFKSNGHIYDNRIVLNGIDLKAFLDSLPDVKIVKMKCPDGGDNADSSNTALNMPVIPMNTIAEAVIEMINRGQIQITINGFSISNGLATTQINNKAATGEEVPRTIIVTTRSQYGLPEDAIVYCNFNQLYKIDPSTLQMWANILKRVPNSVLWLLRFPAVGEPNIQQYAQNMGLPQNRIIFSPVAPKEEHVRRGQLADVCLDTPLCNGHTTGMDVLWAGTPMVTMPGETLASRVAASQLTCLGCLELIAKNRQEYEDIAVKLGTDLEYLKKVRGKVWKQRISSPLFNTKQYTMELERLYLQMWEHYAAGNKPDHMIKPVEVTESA
Test: Fluorescence polarization displacement of probe 3 from sOGT (validation with UDP and UDP-GlcNAc)
Type: binding
Description: 20 μL of this solution is transferred to wells of a 384-well microplate. […] Fluorescence polarization was measured using a Perkin Elmer Envision® microplate reader. Bach series was performed in triplicate and the average of each data point was converted from mP to anisotropy then fitted to the following equation:
[L]0=(KD(Amax−A)/Kd(A−Amin)+1)([E]0−Kd(A−Amin)/(Amax−A)−[t]0(A−Amin)/(Amax−Amin)) eq 3
where A=measured anisotropy at a particular total concentration of ligand (L), sOGT (E) and probe 3 (t), Amin=minimum polarization (i.e., anisotropy of free probe), Amax=final anisotropy (i.e., anisotropy of probe 3 bound entirely to sOGT), KD=dissociation constant of the ligand, Kd=dissociation constant of the probe 3.

- Kd (50 nM probe 3, […] sOGT, ligand 50 μM to 98 nM, read-out: KD (dissociation constant) from displacement of probe 3 from sOGT): 800 ± 300 nM
- extent of displacement of probe 3 from sOGT (at high concentrations of ligand): completely displaced probe 3 from sOGT
SMILES: O=c1ccn([C@@H]2O[C@H](COP(=O)(O)OP(=O)(O)O)[C@@H](O)[C@H]2O)c(=O)[nH]1 [UDP]

From patent US20090325944A1, “Methods and Compositions for Modulating Glycosylation” (priority 2006, published 2009)
